{"source": "patent US20250009779A1", "about": "(priority 2021, published 2025)", "key": {"pDCs [1]": {"test_system": "pDCs", "type": "cell-based, human"}, "pDCs [2]": {"test_system": "pDCs", "type": "cell-based, human", "remark": "listed apart in the source"}, "pDCs [3]": {"test_system": "pDCs", "type": "cell-based, human", "remark": "listed apart in the source"}, "pDCs [4]": {"test_system": "pDCs"}, "pDCs [5]": {"test_system": "pDCs", "type": "cell-based, human", "remark": "listed apart in the source"}, "macrophages [6]": {"test_system": "macrophages", "type": "cell-based, human"}, "macrophages [7]": {"test_system": "macrophages", "experiment": "FAIRE assay on promoter regions of IL6, TNF and IL12p40 in macrophages", "type": "cell-based, human", "details": "cells primed with IFN-α 24 hours, then LPS 3 hours, FIG. 4G"}, "macrophages [8]": {"test_system": "macrophages", "experiment": "Immunoblot of NF-κB and MAPKs signaling in macrophages", "type": "cell-based, human", "details": "whole cell lysates, FIG. 20B"}}, "note": "Entries after “also recorded” stand apart in the source; their conditions may differ."}
{"compound": "O=C(O)CCCCC(CCSCc1ccccc1)SCc1ccccc1", "note": "(centres unmarked) [CPI-613, 6,8-bis-benzylthio-octanoic acid]", "values": [{"measurement": "XBP1 splicing", "setting": "pDCs [1]", "value": "no effect"}, {"measurement": "expression of ISGs such as GBP1, IRF7, ISG54, MxB, CXCL10", "setting": "pDCs [1]", "value": "inhibited"}, {"measurement": "expression of PHGDH", "setting": "pDCs [1]", "value": "no effect"}, {"measurement": "expression of IFN-α (IFNA)", "setting": "pDCs [1]; 5 h", "value": "inhibited"}, {"measurement": "secretion of IFN-α", "setting": "pDCs [2]", "value": "inhibited"}, {"measurement": "intracellular ATP levels in TLR9-activated pDCs", "setting": "pDCs [3]", "value": "reduced"}, {"measurement": "cell viability", "setting": "pDCs [4]", "value": "no effect"}]}
{"compound": "Cc1ccc(OCCN(C)C(=O)Cn2cc(NC(=O)CCOc3ccccc3)cn2)cc1", "note": "[IXA4]", "values": [{"measurement": "PHGDH gene expression", "setting": "pDCs [1]", "value": "induced"}]}
{"compound": "N[C@@H](CO)C(=O)O", "note": "[L-serine]", "values": [{"measurement": "IFN-α secretion by TLR9-activated pDCs", "setting": "pDCs [2]", "value": "unaltered"}]}
{"compound": "Cc1cc(C)nc(NC(=S)N2CCN(Cc3ccc(C(F)(F)F)cc3)CC2)c1", "note": "[NCT-503]", "values": [{"measurement": "IFNA expression by TLR9-activated pDCs facing ER stress", "setting": "pDCs [1]", "value": "restored"}, {"measurement": "intracellular pyruvate levels in ER stressed-pDCs", "setting": "pDCs [5]", "value": "restored"}, {"measurement": "intracellular ATP levels under ER stress", "setting": "pDCs [3]", "value": "restored"}]}
{"compound": "CC(=O)C(=O)[O-].[Na+]", "note": "[pyruvate, sodium pyruvate]", "values": [{"measurement": "IFNA expression by pDCs under ER stress condition", "setting": "pDCs [1]", "value": "restore"}, {"measurement": "intracellular ATP levels under ER stress", "setting": "pDCs [3]", "value": "restored"}]}
{"compound": "C/C=C(/C)C(=O)O[C@H]1C(C)=C2[C@H]([C@@H]1OC(=O)CCCCCCC)[C@@](C)(OC(C)=O)C[C@H](OC(=O)CCC)[C@@]1(O)[C@H]2OC(=O)[C@@]1(C)O", "note": "[thapsigargin]", "values": [{"measurement": "gene encoding phosphoglycerate dehydrogenase (PHGDH) expression", "setting": "pDCs [1]", "value": "markedly induced"}, {"measurement": "induction of serine amino acid biosynthesis genes", "setting": "pDCs [1]", "value": "induction"}]}
{"compound": "O.O=C([O-])CCC(=O)C(=O)[O-].[Na+].[Na+]", "note": "[α-KG, α-ketoglutaric acid disodium salt hydrate]", "values": [{"measurement": "intracellular ATP levels under ER stress", "setting": "pDCs [3]", "value": "restored"}]}
{"compound": "IFN-α", "values": [{"measurement": "LPS-induced response in macrophages: TNF, IL6, IL1B, IL12B and IFNB", "setting": "macrophages [6]", "value": "superinduction; also recorded: increases"}, {"measurement": "TLR4 expression or of the 2 subunits of the IFNAR in the macrophages", "setting": "macrophages [6]", "value": "little change"}, {"measurement": "chemokine receptors expression on macrophages", "setting": "macrophages [6]", "value": "significant impact"}, {"measurement": "inflammatory genes (IL-1β, IL-12p40, IFN-β and CXCL10) expression", "setting": "macrophages [6]", "value": "dose-dependent manner"}, {"measurement": "chromatin accessibility of IL6 and TNF promoters", "setting": "macrophages [7]", "value": "significantly increased; also recorded: increase"}, {"measurement": "TLR4-induced IKBα degradation or activation of MAPKs ERK and p38", "setting": "macrophages [8]", "value": "minimal effects; also recorded: does not increase"}]}
